The melting point is the temperature of the solid-liquid transition.

Like-named read-outs stand apart in the source and are kept apart here.

Data set [1] deals with PC3 (prostate) cancer cells. Put plainly: SRB cytotoxicity assay against PC3. Particulars: Homo sapiens, 72 h treatment. Format: cell-based, human. How it is done:
(§1) MCF-7 (breast) and PC3 (prostate) cancer cells were each grown in RPMI-1640 medium supplemented with 10% heat inactivated FBS, 50 units/mL of penicillin, and […] of streptomycin. The cultures were maintained at 37° C. in a humidified atmosphere containing 5% CO2. The cells were maintained as “monolayer culture” by serial sub-culturing.
(§2) Cytotoxicity was determined using SRB method as previously described by Skehan et al. [Skehan P.; Storeng R.; Scudiero D.; Monks A.; McMahon J.; al., V. D. e., New colorimetric cytotoxicity assay for anticancer drug screening. […] Exponentially growing cells were collected using 0.25% Trypsin-EDTA and seeded in 96-well plates at 1000-2000 cells/well in RPMI-1640 supplemented medium. After 24 h, cells were incubated for 72 h with various concentrations of the tested compounds. Following 72 h treatment, the cells would be fixed with 10% trichloroacetic acid for 1 h at 4° C. Wells were stained for 10 min at room temperature with 0.4% SRB dissolved in 1% acetic acid. The plates were air dried for 24 h and the dye was solubilized with Tris-HCl for 5 min on a shaker at 1600 rpm. The optical density (OD) of each well was measured spectrophotometrically at 564 nm with an ELISA microplate reader (ChroMate-4300, FL, USA). The IC50 values were calculated according to the equation for Boltzman sigmoidal concentration—response curve using the nonlinear regression fitting models (Graph Pad, Prism Version 5).
On the technique in general: In SRB staining, fixed cells bind dye roughly in proportion to their protein.

Data set [2] concerns HL-60 leukemia cells. Briefly: CellTiter-Blue cell viability assay on HL-60. Type of data set: cell-based. Particulars: Homo sapiens, HL-60 cells, 48 h. How it is done:
(§3) HL-60 were purchased from CLS Cell Line Service GmbH (Eppelheim, Germany) and cultured in Roswell Park Memorial Institute-1640 medium (RPMI-1640; Thermo Fisher Scientific, Inc; Waltham, Mass., USA) supplemented with 10% fetal bovine serum (FBS; Thermo Fisher Scientific) and ciprofloxacin (10 μg/mL; Cipla Limited; Mumbai, India), at 37° C. with 5% CO2 in a humidified incubator.
The CellTiter®-Blue Cell Viability assay was acquired from Promega Corporation (Madison, Wis., USA). Cell viability assay was performed as follows. The cells (10^4/well) were incubated with a concentration gradient of KIM-161C and KIM-241C ranging from 0.01 to 100 in 96-well plates for 48 h at 37° C. Subsequently, 20 μL CellTiter®-Blue Cell Viability reagent was added to each well and incubated for an additional 2 h for the development of fluorescence. The fluorescence emission was measured at 590 nm using the SpectraMax® i3× Multi-Mode microplate reader (Molecular Devices, LLC; San Jose, Calif., USA.) and plotted against drug concentrations to determine the mean inhibitory concentration of KIM-161C and KIM-241C producing 50% decrease in cell viability (IC50).
For orientation: Alamar Blue is a resazurin reagent that responds to reducing activity.

The test system of data set [3] is MCF-7 (breast) cancer cells. Briefly: SRB cytotoxicity assay against MCF7. Type of data set: cell-based, human. To be noted: Homo sapiens, 72 h treatment. How it is done: as §1, §2
The subject of data set [4] is HL-60 leukemia cells. Briefly: Apoptosis detection by caspase 3 activity in HL-60 cells. Type of data set: cell-based, human. As for the experimental part: as §3
The caspase family of cysteine proteases are important regulators in the apoptosis. Caspase 3 belongs to the effector (caspase 3, 6 and 7) class of proteases and it is a key protease that is activated during early stages of apoptosis. […] The activated caspase 3 is a marker for cell apoptosis that proteolytically cleaves and activates other caspases and intracellular targets [Patel, T.; Gores, G. J.; Kaufmann, S. H., The role of proteases during apoptosis. FASEB journal: official publication of the Federation of American Societies for Experimental Biology 1996, 10 (5), 587-97].
FITC conjugated active caspase-3 antibody (BD biosciences, USA) was used to detect the active form of caspase 3 in the cells undergoing apoptosis. […] The collected cells were washed twice in cold 1×PBS and then re-suspended in a 0.5 mL BD Cytofix/Cytoperm solution followed by 20 min incubation on ice. After incubation, cells were washed twice in a BD Perm/Wash buffer (1×) and then labelled with 5 μL of FITC rabbit anti-caspase 3 antibodies. The labelled cells were washed again with wash buffer and re-suspended in a 0.5 mL buffer and analyzed by acquiring a minimum of 5000 events on the FACS Aria III cell analyzer and sorter.

For data set [5], the system named is HL-60 leukemia cells. Briefly: Cell cycle analysis of Hoechst 33342 stained HL-60 cells by flow cytometry. Format: cell-based, human. Particulars: 48 h. As for the experimental part:
as §3
The cells (3.5×10^5) were incubated with two different concentrations of KIM-161C at 37° C. for 48 h. Subsequently, the cells were collected and washed twice with ice-cold PBS (1×). The washed cells were fixed on ice for 20 min using a fixation buffer containing paraformaldehyde. Hoechst 33342 (10 μg/mL; Thermo Fisher Scientific, Inc.) was used for staining. The cells were then incubated in the dark for 30 min on ice. A minimum total of 20,000 events were acquired using a BD FACSAria III flow cytometer. Flowlogic version 7.2.1 software (Inivai Technologies, Victoria, Australia) was used to obtain the percentages of cells in the G1, S, and G2/M phases in the singlet-gated population.
(In general: Flow cytometry measures light scatter and fluorescence of single cells or particles in a stream.)

As to `O=C(Cc1ccc(N2C(=O)/C(=C/c3ccco3)N=C2c2ccccc2)cc1)NCc1ccccc1` [KIM-241C, (Z)—N-benzyl-2-(4-(4-(furan-2-ylmethylene)-5-oxo-2-phenyl-4,5-dihydro-1H-imidazol-1-yl)phenyl)acetamide], the melting point is 199 to 200 °C. In data set [1], this compound had an IC50 of 243 nM. Moreover, in the data set on HL-60 leukemia cells [2] (read-out: IC50 value, HL-60 cell viability (could not be obtained even at this concentration)), the IC50 was over 20000 nM. In data set [3], this compound came in with an IC50 of 145 nM.
As for `COc1ccc(/C=C2\N=C(C)N(c3ccc(CC(=O)NCc4ccccc4)cc3)C2=O)cc1` [KIM-161C, (Z)—N-benzyl-2-(4-(4-(4-methoxybenzylidene)-2-methyl-5-oxo-4,5-dihydro-1H-imidazol-1-yl)phenyl)acetamide], the “increase in the cells undergoing apoptosis as compared to the basal apoptosis” value is listed as “more than 2 fold” in the data set on HL-60 leukemia cells [4] (362.5 nM, 24 h); “more than 2 fold” in the data set with HL-60 leukemia cells [4] (362.5 nM, 48 h); “more than 9.5 fold” with HL-60 leukemia cells [4] (725 nM, 24 h); over 8.45 fold with HL-60 leukemia cells [4] (725 nM, 48 h). For the same compound, the “cells in the G1 phase” value in the data set on HL-60 leukemia cells [5] (362.5 nM) is listed as “increase”. Moreover, the “increase in the cells in G2/M stage as compared to the control” value in the data set with HL-60 leukemia cells [5] (725 nM) came to 3 fold. Further, the IC50 is 262 nM with HL-60 leukemia cells [2] (read-out: IC50 value, HL-60 cell viability) and 3500 nM in data set [3].

These data come from patent publication US11174233B1, “Anti-cancer compounds having oxazolone derivation” (King Abdulaziz University, priority 2019, dated 2021).
